Test results published in PubChem BioAssay AID330 (DTP/NCI, 2004).
Where “and” joins values, the source holds several entries; their conditions need not be identical. Equal values may be shown once. Inconclusive results and toxic doses are left out. How the source made its calls: active means survival T/C of 150% or more; inactive means T/C below 125% in these data.

System: P388 leukemia ip, CD2F1 mice, survival T/C
Assay: NCI In Vivo Anticancer Drug Screen. Data for tumor model P388 Leukemia (intraperitoneal) in CD2F1 (CDF1) mice
Conditions: endpoint: median survival time, higher = longer survival
Method in brief: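 Mice carrying the transplanted tumor received test compound or vehicle. Survival was recorded in each group, and the value is the treated-group measurement divided by that of the vehicle-treated control group.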

Measured: T/C

O=C1c2ccccc2C(=O)c2c(NCCNCCO)ccc(NCCNCCO)c21
active: dose: 0.5 mg/kg/injection, schedule: Q01DX009 (ip), vehicle: water 165 % of control | dose: 1.0 mg/kg/injection, schedule: Q01DX009 (ip), vehicle: water 167 % of control | dose: 1.25 mg/kg/injection, schedule: Q01DX009 (ip), vehicle: saline 192 % of control | dose: 1.25 mg/kg/injection, schedule: Q01DX009 (ip), vehicle: water 155 % of control | dose: 2.0 mg/kg/injection, schedule: Q01DX009 (ip), vehicle: saline 199 % of control | dose: 3.13 mg/kg/injection, schedule: Q01DX005 (ip), vehicle: saline 169 % of control | dose: 3.89 mg/kg/injection, schedule: Q01DX009 (ip), vehicle: saline 200 % of control and 261 % of control | dose: 4.0 mg/kg/injection, schedule: Q01DX009 (ip), vehicle: saline 233 % of control | dose: 5.0 mg/kg/injection, schedule: Q01DX005 (ip), vehicle: saline 223 % of control | dose: 6.25 mg/kg/injection, schedule: Q01DX005 (ip), vehicle: saline 205 % of control | dose: 6.25 mg/kg/injection, schedule: Q01DX009 (ip), vehicle: water 156 % of control | dose: 6.48 mg/kg/injection, schedule: Q01DX009 (ip), vehicle: saline 207 % of control and 245 % of control | dose: 7.78 mg/kg/injection, schedule: Q01DX005 (ip), vehicle: saline 261 % of control | dose: 7.78 mg/kg/injection, schedule: Q04DX003 (ip), vehicle: saline 181 % of control | dose: 8.0 mg/kg/injection, schedule: Q04DX003 (ip), vehicle: Klucel (hydroxypropylcellulose) (HPC) 172 % of control | dose: 8.0 mg/kg/injection, schedule: Q04DX003 (ip), vehicle: saline 153 % of control | dose: 10.0 mg/kg/injection, schedule: Q01DX005 (ip), vehicle: saline 258 % of control | dose: 10.0 mg/kg/injection, schedule: Q04DX003 (ip), vehicle: saline 178 % of control | dose: 10.4 mg/kg/injection, schedule: Q04DX003 (ip), vehicle: saline 196 % of control and 208 % of control | dose: 10.8 mg/kg/injection, schedule: Q01DX009 (ip), vehicle: saline 209 % of control | dose: 10.8 mg/kg/injection, schedule: Q01DX009 (sc), vehicle: saline 178 % of control | dose: 12.5 mg/kg/injection, schedule: Q01DX005 (ip), vehicle: saline 241 % of control | dose: 12.5 mg/kg/injection, schedule: Q01DX009 (ip), vehicle: water 187 % of control | dose: 12.5 mg/kg/injection, schedule: Q04DX003 (ip), vehicle: saline 176 % of control | dose: 13.0 mg/kg/injection, schedule: Q01DX005 (iv), vehicle: saline 161 % of control | dose: 13.0 mg/kg/injection, schedule: Q04DX003 (ip), vehicle: saline 156 % of control and 203 % of control | dose: 13.8 mg/kg/injection, schedule: Q04DX003 (ip), vehicle: saline 209 % of control | dose: 16.0 mg/kg/injection, schedule: Q01DX009 (ip), vehicle: saline 177 % of control | dose: 16.0 mg/kg/injection, schedule: Q04DX003 (ip), vehicle: Klucel (hydroxypropylcellulose) (HPC) 175 % of control | dose: 17.3 mg/kg/injection, schedule: Q04DX003 (ip), vehicle: saline 216 % of control and 241 % of control | dose: 18.0 mg/kg/injection, schedule: Q01DX009 (sc), vehicle: saline 205 % of control | dose: 20.0 mg/kg/injection, schedule: Q01DX001 (ip), vehicle: saline 163 % of control | dose: 20.0 mg/kg/injection, schedule: Q01DX005 (iv), vehicle: saline 173 % of control | dose: 21.6 mg/kg/injection, schedule: Q01DX001 (ip), vehicle: saline 178 % of control and 213 % of control | dose: 25.0 mg/kg/injection, schedule: Q01DX005 (iv), vehicle: saline 178 % of control | dose: 25.0 mg/kg/injection, schedule: Q04DX003 (ip), vehicle: Klucel (hydroxypropylcellulose) (HPC) 157 % of control | dose: 25.0 mg/kg/injection, schedule: Q04DX003 (ip), vehicle: saline 246 % of control | dose: 28.8 mg/kg/injection, schedule: Q04DX003 (ip), vehicle: saline 252 % of control | dose: 30.0 mg/kg/injection, schedule: Q01DX009 (sc), vehicle: saline 227 % of control | dose: 32.0 mg/kg/injection, schedule: Q04DX003 (ip), vehicle: saline 166 % of control | dose: 36.0 mg/kg/injection, schedule: Q01DX001 (ip), vehicle: saline 209 % of control and 233 % of control | dose: 40.0 mg/kg/injection, schedule: Q01DX001 (ip), vehicle: saline 197 % of control | dose: 40.0 mg/kg/injection, schedule: Q01DX005 (ip), vehicle: saline 250 % of control | dose: 40.0 mg/kg/injection, schedule: Q04DX003 (ip), vehicle: saline 214 % of control | dose: 50.0 mg/kg/injection, schedule: Q04DX003 (ip), vehicle: Klucel (hydroxypropylcellulose) (HPC) 150 % of control and 174 % of control | dose: 50.0 mg/kg/injection, schedule: Q04DX003 (ip), vehicle: saline 192 % of control | dose: 60.0 mg/kg/injection, schedule: Q01DX001 (ip), vehicle: saline 218 % of control and 224 % of control | dose: 64.0 mg/kg/injection, schedule: Q04DX003 (ip), vehicle: Klucel (hydroxypropylcellulose) (HPC) 163 % of control | dose: 64.0 mg/kg/injection, schedule: Q04DX003 (ip), vehicle: saline 166 % of control and 201 % of control | dose: 80.0 mg/kg/injection, schedule: Q01DX001 (ip), vehicle: saline 241 % of control | dose: 96.0 mg/kg/injection, schedule: Q04DX003 (ip), vehicle: saline 152 % of control and 153 % of control | dose: 100.0 mg/kg/injection, schedule: Q01DX001 (ip), vehicle: saline 210 % of control | dose: 100.0 mg/kg/injection, schedule: Q04DX003 (ip), vehicle: Klucel (hydroxypropylcellulose) (HPC) 176 % of control and 178 % of control | dose: 128.0 mg/kg/injection, schedule: Q04DX003 (ip), vehicle: saline 173 % of control and 186 % of control | dose: 167.0 mg/kg/injection, schedule: Q01DX001 (ip), vehicle: saline 216 % of control | dose: 192.0 mg/kg/injection, schedule: Q04DX003 (ip), vehicle: saline 150 % of control | dose: 200.0 mg/kg/injection, schedule: Q04DX003 (ip), vehicle: Klucel (hydroxypropylcellulose) (HPC) 157 % of control
inactive: dose: 0.1 mg/kg/injection, schedule: Q04DX003 (ip), vehicle: saline 108 % of control | dose: 0.3 mg/kg/injection, schedule: Q04DX003 (ip), vehicle: saline 116 % of control | dose: 0.5 mg/kg/injection, schedule: Q04DX003 (ip), vehicle: saline 118 % of control | dose: 1.0 mg/kg/injection, schedule: Q04DX003 (ip), vehicle: saline 110 % of control and 115 % of control | dose: 2.0 mg/kg/injection, schedule: Q04DX003 (ip), vehicle: saline 117 % of control | dose: 3.13 mg/kg/injection, schedule: Q01DX005 (iv), vehicle: saline 114 % of control | dose: 3.89 mg/kg/injection, schedule: Q01DX009 (sc), vehicle: saline 118 % of control | dose: 4.0 mg/kg/injection, schedule: Q04DX003 (ip), vehicle: saline 117 % of control | dose: 5.0 mg/kg/injection, schedule: Q01DX005 (iv), vehicle: saline 116 % of control | dose: 6.22 mg/kg/injection, schedule: Q04DX003 (iv), vehicle: saline 109 % of control and 118 % of control | dose: 7.78 mg/kg/injection, schedule: Q01DX001 (iv), vehicle: saline 107 % of control and 111 % of control | dose: 10.0 mg/kg/injection, schedule: Q01DX001 (iv), vehicle: saline 107 % of control | dose: 10.0 mg/kg/injection, schedule: Q04DX003 (iv), vehicle: saline 108 % of control | dose: 10.4 mg/kg/injection, schedule: Q04DX003 (iv), vehicle: saline 117 % of control | dose: 13.0 mg/kg/injection, schedule: Q01DX001 (iv), vehicle: saline 111 % of control and 112 % of control | dose: 15.0 mg/kg/injection, schedule: Q01DX009 (ip), vehicle: saline 113 % of control | dose: 20.0 mg/kg/injection, schedule: Q01DX001 (iv), vehicle: saline 115 % of control | dose: 21.6 mg/kg/injection, schedule: Q01DX001 (iv), vehicle: saline 117 % of control | dose: 24.0 mg/kg/injection, schedule: Q04DX003 (ip), vehicle: saline 116 % of control | dose: 25.0 mg/kg/injection, schedule: Q01DX009 (ip), vehicle: water 122 % of control | dose: 32.0 mg/kg/injection, schedule: Q04DX003 (ip), vehicle: Klucel (hydroxypropylcellulose) (HPC) 114 % of control | dose: 36.0 mg/kg/injection, schedule: Q01DX005 (ip), vehicle: saline 121 % of control

COC(=O)c1cnc(N)n1C
inactive: dose: 12.5 mg/kg/injection, schedule: Q01DX009 (ip), vehicle: distilled water + Tween-80 101 % of control

COC(=O)C1CP2(C)(C)N(C)C(=O)N2C1(c1ccccc1)c1ccccc1 (stereo not drawn)
inactive: dose: 50.0 mg/kg/injection, schedule: Q01DX005 (ip), vehicle: Klucel (hydroxypropylcellulose) (HPC) 102 % of control | dose: 100.0 mg/kg/injection, schedule: Q01DX005 (ip), vehicle: Klucel (hydroxypropylcellulose) (HPC) 102 % of control | dose: 200.0 mg/kg/injection, schedule: Q01DX005 (ip), vehicle: Klucel (hydroxypropylcellulose) (HPC) 112 % of control
